1 molecule from patent US5948780A, “Method for treating and preventing heart failure and ventricular dilatation” (priority 1997, dated 1999) can be followed below.

One test has as its system gelatinases. Description: plasma MMP inhibitory activity (thiopeptolide hydrolysis), gelatinases. The conditions noted are these: plasma after 10 mg/kg oral administration. Type of test: biochemical. As for the experimental part:
(§1) The MMP inhibitor chosen for these studies was Compound A as above. A single oral dose of 10 mg/kg of Compound A was administered in one pig, and a second pig was simultaneously administered a single 10 mg/kg dose of the MMP inhibitor intravenously. Plasma samples were serially collected from the chronically placed arterial access ports. Plasma levels of the MMP inhibitor were determined by the degree of hydrolysis of the MMP substrate thiopeptolide Ac-Pro-Leu-Gly-thioester-Leu-Leu-Gly=OEt. […] A pharmacokinetic profile was constructed using these initial data, and it was predicted that an oral delivery of 20 mg/kg/day of Compound A would provide significant MMP plasma inhibitory activity at trough levels. Accordingly, the 3 pigs underwent 20 mg/kg QD-AM of treatment with Compound A for 5 days. In order to confirm adequate MMP inhibitory activity, plasma was collected prior to the AM dose with each day of treatment. […] Thus, a practical dosing regiment of Compound A was established which provided stable plasma MMP inhibitory activity in the animal model to be used in the present study.

In another test the test system is MMP. Description: MMP inhibitory activity of plasma from treated pigs, artificial MMP substrate. Type of test: biochemical. The protocol: as §1
For test [1], the system named is chronic rapid pacing heart failure model. Description: LV geometry, LV function and systemic hemodynamics with chronic rapid pacing (Table III). Particulars: Rapid Pacing + MMPi, 20 mg/kg QD, 3 weeks, mean ± SEM. Type of test: in vivo, pig. The text has this: Pacemakers were implanted or sham procedures performed with the animals anesthetized as described in the preceding section. In addition to the placement of the aortic access port, a shielded stimulating electrode was sutured onto the left atrium, connected to a modified programmable pacemaker (8329, Medtronic, Inc., Minneapolis, Minn.), and buried in a subcutaneous pocket. The pericardium was approximated, the thoracotomy closed, and the pleural space evacuated of air. Ten to 14 days following recovery from the surgical procedure, baseline studies were performed, and the protocols described above were begun. Cardiac auscultation and an electrocardiogram were performed frequently during the pacing protocol in order to ensure proper operation of the pacemaker and the presence of 1:1 conduction. In this porcine preparation, atrio-ventricular conduction can be maintained at this pacing rate and therefore provide a homogeneous pattern of ventricular myocardial electrical activation. The sham operated controls were cared for in identical fashion with the exception of the pacing protocol. All animals were treated and cared for in accordance with the National Institutes of Health "Guide for the Care and Use of Laboratory Animals" (National Research Council, Washington, 1996).
LV size and function were measured at weekly intervals in all of the pigs undergoing rapid pacing. For these studies, the animals were brought to the laboratory and the pacemaker deactivated. All measurements were performed at an ambient resting heart rate within 30 to 40 minutes following pacemaker deactivation. Two-dimensional and M-mode echocardiographic studies (ATL Ultramark VI, 2.25 MHz transducer, Bothell, Wash.) were used to image the LV from a right parasternal approach. LV fractional shortening was calculated as ([…])/end-diastolic dimension and was expressed as a percent. Peak circumferential global average wall stress was computed using a spherical model of reference: σ(gm/cm^2)=(PD/4h(1+h/D))×1.36; where P=aortic systolic pressure measured from the access port, D=minor axis dimension at end-diastole, and h=wall thickness. The mean velocity of circumferential fiber shortening (Vcf) was calculated using the LV echocardiographic dimension measurements and the arterial pressure trace. The LV ejection time, used in the calculation of Vcf, was rate-corrected to a heart rate of 60 bpm by […] by the square root of the RR interval.

The next test has as its system plasma neurohormones. Description: plasma neurohormones with chronic rapid pacing (Table III). Particulars: Rapid Pacing + MMPi, 20 mg/kg QD, 3 weeks, mean ± SEM. The test is classed as in vivo, pig.

Procedure for plasma neurohormones: Following steady-state LV function measurements, 35 cc of blood was drawn from the arterial access port into chilled tubes containing EDTA (1.5 mg/mL). The blood samples were immediately centrifuged (2000 g, 10 min, 4° C.), the plasma decanted into separate tubes, frozen in a dry ice/methanol bath, and stored at -80° C. until the time of assay.
The plasma samples were assayed for renin activity, catecholamine levels, and plasma MMP inhibition levels. Plasma renin activity (PRA) was determined by computing angiotensin I production using a radioimmunoassay (NEA-026, New England Nuclear, Boston, Mass.). Plasma norepinephrine was measured using high-performance liquid chromatography and normalized to pg/mL of plasma. All assays were performed in duplicate.
For comparisons of neurohormonal profiles, the Student-Neuman-Kuells test was employed. […] Values of p<0.05 were considered to be statistically significant.

With `CC(C)C(NS(=O)(=O)c1ccc(-c2ccc(Br)cc2)cc1)C(=O)O` (stereo not shown) [Compound A, 2-(4'-bromobiphenyl-4-sulfonylamino)-3-methylbutyric acid], the “reduction in activity against the gelatinases” value with gelatinases is recorded as ~50%. For the same molecule, the “plasma MMP inhibitory activity” value in the test with MMP (pig, 20 mg/kg QD for 5 days, pre-dose plasma) is given as “significant plasma MMP inhibitory activity was observed”. For the same molecule, the “reduction of in vitro MMP activity by plasma” value in the test on MMP (plasma after 3 days of treatment, 20 mg/kg QD, artificial MMP substrate) is reported as “over 100%”. For the same molecule, in test [1], the “End-Diastolic Dimension” value worked out at 4.7 ± 0.2 cm, the “Fractional Shortening” value is listed as 26 ± 3%, the “Heart Rate” value is listed as 149 ± 3 bpm and the “Mean Arterial Pressure” value is given as 83 ± 2 mmHg. In test [1], the “Peak Wall Stress” value is listed as 185 ± 11 g/cm^2, the “Vcf (velocity of circumferential fiber shortening)” value stood at 1.4 ± 0.2 s⁻¹, the “Vcfc (velocity of circumferential fiber shortening corrected for heart rate)” value amounted to 2.3 ± 0.2 s⁻¹ and the “Wall Thickness” value came out at 0.80 ± 0.22 CM. Moreover, in the test on plasma neurohormones, the Norepinephrine stood at 1073 ± 241 pg/mL and the “Renin Activity” value was determined as 10.4 ± 1.1 ng/mL/h.
